Source: patent publication US5807885A, “Amidine derivatives with nitric oxide synthetase activities” (priority 1996, dated 1998)

Columns and labels:
[1] = target: T1, neuronal nitric oxide synthetase (Rattus norvegicus, UniProt P29476); assay: Screen A: screen for neuronal nitric oxide synthetase inhibitory activity; type: biochemical; conditions: for IC50: neuronal isoform, rat hippocampus or cerebellum supernatant, read-out: IC50 (concentration of drug substance which gives 50% enzyme inhibition in the assay)
T1 construct: Enzyme was isolated from rat hippocampus or cerebellum; from tissue; host or cells: cerebellum or hippocampus of male Sprague-Dawley rat, 20,000 g supernatant
T1 sequence (P29476 whole entry, canonical isoform): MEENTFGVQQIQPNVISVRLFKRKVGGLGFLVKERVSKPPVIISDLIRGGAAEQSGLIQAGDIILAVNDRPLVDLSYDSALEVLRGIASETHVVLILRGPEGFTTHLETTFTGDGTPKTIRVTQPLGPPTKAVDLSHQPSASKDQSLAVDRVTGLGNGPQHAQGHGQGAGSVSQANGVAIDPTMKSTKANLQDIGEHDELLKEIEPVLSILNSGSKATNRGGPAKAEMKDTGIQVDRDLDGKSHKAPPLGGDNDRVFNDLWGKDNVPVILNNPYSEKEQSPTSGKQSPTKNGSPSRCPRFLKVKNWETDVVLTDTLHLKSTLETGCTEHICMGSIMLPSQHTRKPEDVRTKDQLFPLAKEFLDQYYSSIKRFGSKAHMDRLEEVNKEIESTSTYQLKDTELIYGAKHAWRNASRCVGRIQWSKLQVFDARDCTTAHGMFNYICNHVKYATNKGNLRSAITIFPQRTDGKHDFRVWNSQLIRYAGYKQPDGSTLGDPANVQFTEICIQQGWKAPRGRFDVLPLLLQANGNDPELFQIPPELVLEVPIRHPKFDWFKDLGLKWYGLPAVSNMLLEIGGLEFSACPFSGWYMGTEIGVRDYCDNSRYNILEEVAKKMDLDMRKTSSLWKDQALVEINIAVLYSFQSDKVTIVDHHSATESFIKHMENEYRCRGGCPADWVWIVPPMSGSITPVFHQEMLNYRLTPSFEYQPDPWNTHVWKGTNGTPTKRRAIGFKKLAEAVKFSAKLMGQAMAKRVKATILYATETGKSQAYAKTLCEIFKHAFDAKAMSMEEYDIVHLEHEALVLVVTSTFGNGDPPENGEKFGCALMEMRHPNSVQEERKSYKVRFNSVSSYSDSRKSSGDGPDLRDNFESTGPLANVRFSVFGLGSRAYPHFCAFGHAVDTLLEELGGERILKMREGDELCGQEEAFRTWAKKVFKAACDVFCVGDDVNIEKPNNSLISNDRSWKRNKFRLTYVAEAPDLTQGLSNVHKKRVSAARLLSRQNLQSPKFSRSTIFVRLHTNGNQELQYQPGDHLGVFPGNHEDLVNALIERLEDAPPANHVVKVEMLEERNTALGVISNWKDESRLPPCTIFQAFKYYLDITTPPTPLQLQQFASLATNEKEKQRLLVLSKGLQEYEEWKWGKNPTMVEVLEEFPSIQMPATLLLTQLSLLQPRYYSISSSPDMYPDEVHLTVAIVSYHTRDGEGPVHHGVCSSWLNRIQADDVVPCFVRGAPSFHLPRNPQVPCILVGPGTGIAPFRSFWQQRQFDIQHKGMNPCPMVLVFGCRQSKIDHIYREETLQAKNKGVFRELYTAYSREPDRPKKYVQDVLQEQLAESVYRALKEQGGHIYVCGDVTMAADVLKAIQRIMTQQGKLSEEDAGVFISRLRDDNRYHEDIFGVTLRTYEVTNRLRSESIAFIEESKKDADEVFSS

[2] = target: T2, endothelial nitric oxide synthetase (Homo sapiens, UniProt P29474); assay: Screen C: screen for endothelial nitric oxide synthetase inhibitory activity; type: biochemical
T2 construct: Enzyme may be isolated from human umbilical vein endothelial cells (HUVECs); host or cells: human umbilical vein endothelial cells (HUVECs)
T2 sequence (P29474 2-1203): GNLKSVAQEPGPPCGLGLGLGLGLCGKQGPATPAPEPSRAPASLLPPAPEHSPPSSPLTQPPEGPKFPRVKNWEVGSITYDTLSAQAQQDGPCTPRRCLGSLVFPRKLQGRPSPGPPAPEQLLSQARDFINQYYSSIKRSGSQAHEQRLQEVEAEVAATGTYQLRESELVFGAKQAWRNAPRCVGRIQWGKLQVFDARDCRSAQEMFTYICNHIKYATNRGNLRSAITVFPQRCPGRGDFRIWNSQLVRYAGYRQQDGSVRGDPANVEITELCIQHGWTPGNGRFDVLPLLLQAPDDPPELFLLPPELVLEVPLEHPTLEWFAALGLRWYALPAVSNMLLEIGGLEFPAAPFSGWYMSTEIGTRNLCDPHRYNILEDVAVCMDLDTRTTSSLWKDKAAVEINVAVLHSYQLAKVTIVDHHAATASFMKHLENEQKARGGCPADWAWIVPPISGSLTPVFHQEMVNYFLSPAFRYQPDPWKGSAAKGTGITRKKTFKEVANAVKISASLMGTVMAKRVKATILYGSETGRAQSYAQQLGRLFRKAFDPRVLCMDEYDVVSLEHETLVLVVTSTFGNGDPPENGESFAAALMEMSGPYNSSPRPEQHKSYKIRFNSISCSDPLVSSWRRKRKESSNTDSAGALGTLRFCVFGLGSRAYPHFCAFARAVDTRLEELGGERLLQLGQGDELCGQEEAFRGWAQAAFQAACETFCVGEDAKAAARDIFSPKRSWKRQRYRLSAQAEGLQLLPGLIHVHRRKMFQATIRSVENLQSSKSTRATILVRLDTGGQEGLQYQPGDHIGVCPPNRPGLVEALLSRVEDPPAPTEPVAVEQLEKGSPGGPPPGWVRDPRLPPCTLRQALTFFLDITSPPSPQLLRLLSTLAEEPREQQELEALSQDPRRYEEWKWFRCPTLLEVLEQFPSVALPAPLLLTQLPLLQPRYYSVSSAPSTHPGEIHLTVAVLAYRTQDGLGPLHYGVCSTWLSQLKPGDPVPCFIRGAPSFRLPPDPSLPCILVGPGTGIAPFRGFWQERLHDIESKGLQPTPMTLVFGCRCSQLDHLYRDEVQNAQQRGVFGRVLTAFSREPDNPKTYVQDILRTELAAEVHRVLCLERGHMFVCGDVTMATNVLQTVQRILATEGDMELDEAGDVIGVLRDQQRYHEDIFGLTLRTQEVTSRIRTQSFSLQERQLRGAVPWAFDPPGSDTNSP

[3] = target: T3, macrophage nitric oxide synthetase (Mus musculus, UniProt P29477); assay: Screen B: screen for macrophage nitric oxide synthetase activity; type: biochemical, murine; conditions: macrophage isoform (Screen B) versus neuronal isoform (Screen A)
T3 construct: Nitric oxide synthetase is produced by cells in response to interferon-γ (IFNγ) and lipopolysaccharide (LPS); endogenous in cells; host or cells: murine macrophage cell line J774A-1, induced with IFN-gamma and LPS (cell line from Imperial Cancer Research Fund)
Description: The enzyme nitric oxide synthetase has a number of isoforms and compounds of formula I, or pharmaceutically acceptable salts thereof, may be screened for nitric oxide synthetase inhibitory activity by procedures based on those of Bredt and Snyder in Proc. Natl. Acad. Sci (1990) 87, 682-685 and Forstermann et. al. (1992) Eur. J. Pharm. 225,161-165 as follows. Nitric axide synthetase converts ^3 H-L-arginine to ^3 H-L-citrulline which can be separated by cation exchange chromatography and quantified by liquid scintillation counting.
(B) Screen for macrophage nitric oxide synthetase activity
Enzyme is prepared; after induction, from the cultured murine macrophage cell line J774A-1 (obtained from laboratories of the Imperial Cancer Research Fund). J774A-1 cells are cultured in Dulbecco's Modified Eagles Medium (DMEM) supplemented with 10% foetal bovine serum, 4 mM L-glutamine and antibiotics (100 units/ml penicillin G, 100 μg/ml streptomycin & 0.25 μg/m amphotericin B). Cells are routinely grown in […] flasks containing 35 ml medium kept at 37° C. and in a humidified atmosphere containing 5% CO2.
Nitric oxide synthetase is produced by cells in response to interferon-γ (IFNγ) and lipopolysaccharide (LPS). […]
Labelled L-citrulline is separated from labelled L-arginine using Dowex AG-50W. […] After allowing the samples to dry the L-citrulline is quantified by scintillation counting. […]

Row | IC50 [1] | SMILES | also measured
1 | – | CN(CCc1ccc(NC(=N)C(F)(F)F)cc1)Cc1ccccc1 [Example 72, N-(4-(2-((phenylmethyl)(methyl)amino)ethyl)phenyl)trifluoroacetimidamide] | inhibition at 10 µM ([1]; at 10 μM): 17%
2 | < 10 µM | N=C(Nc1ccc(C(=O)Nc2ccccc2)cc1)c1cccs1 [Example 27(b), N-(4-((phenylamino)carbonyl)phenyl)-2-thiophenecarboximidamide] | –
3 | – | NC(=N[N+](=O)[O-])NCCC[C@H](N)C(=O)O [N-nitro-L-arginine, reference compound] | inhibition at 1 µM ([2]; Screen C, at a concentration of 1 μM, HUVEC enzyme, read-out: inhibition of nitric oxide synthetase (reference standard)): 70 to 90%
4 | < 10 µM | N=C(Nc1ccc(CCCC(=O)N2CCOCC2)cc1)c1cccs1 [27(a), N-(4-(3-((4-morpholinyl)carbonyl)propyl)phenyl)-2-thiophenecarboximidamide] | –
5 | < 10 µM | NC(=Nc1ccc(CCNCc2ccccc2)cc1)c1cccs1 [Example 1, N-(4-(2-((phenylmethyl)amino)ethyl)phenyl)-2-thiophenecarboximidamide] | IC50 in Screen B relative to IC50 in Screen A [3]: more than 10 times; IC50 in Screen C relative to IC50 in Screen A ([2]; endothelial isoform (Screen C) versus neuronal isoform (Screen A)): more than 10 times
6 | < 100 µM | NC(=Nc1ccc(NC(=O)N(c2ccccc2)c2ccccc2)cc1)c1cccs1 [Example 48, N-[4-(((Diphenylamino)carbonyl)amino)phenyl]-2-thiophenecarboxamidine] | –
